The IC50 is the concentration at which inhibition is half-maximal. The term inhibition denotes the drop in the measured response relative to a control, in per cent. Lower therefore signals a response near the control.

Consider ten molecules from ChEMBL document CHEMBL4304785, “Recent advances of analogues of curcumin for treatment of cancer” (Eur J Med Chem, 2019).

For test [1], the system named is U-251. Put plainly: Antiproliferative activity against human U251 cells by MTT assay. It is filed as functional, cell-based.
The test system of test [2] is L02. As to the kind of experiment: Antiproliferative activity against human HL7702 cells by MTT assay. It is filed as functional, cell-based. A general note: Tetrazolium dyes change colour on reduction, which living cells bring about.
The test system of test [3] is SGC-7901. As to the kind of experiment: Antiproliferative activity against human SGC7901 cells by MTT assay. It counts as functional, cell-based.
Test [4] relates to NCI-H460. As to the kind of experiment: Antiproliferative activity against human H460 cells by MTT assay. It is filed as functional, cell-based.
The target of test [5] is Fibroblast growth factor receptor 2 (Homo sapiens) (UniProt P21802). As to the kind of experiment: Inhibition of FGFR2 (unknown origin) relative to control. The following applies: concentration not given here.
Chain of Fibroblast growth factor receptor 2 (Homo sapiens) (P21802 22-821 limits assumed): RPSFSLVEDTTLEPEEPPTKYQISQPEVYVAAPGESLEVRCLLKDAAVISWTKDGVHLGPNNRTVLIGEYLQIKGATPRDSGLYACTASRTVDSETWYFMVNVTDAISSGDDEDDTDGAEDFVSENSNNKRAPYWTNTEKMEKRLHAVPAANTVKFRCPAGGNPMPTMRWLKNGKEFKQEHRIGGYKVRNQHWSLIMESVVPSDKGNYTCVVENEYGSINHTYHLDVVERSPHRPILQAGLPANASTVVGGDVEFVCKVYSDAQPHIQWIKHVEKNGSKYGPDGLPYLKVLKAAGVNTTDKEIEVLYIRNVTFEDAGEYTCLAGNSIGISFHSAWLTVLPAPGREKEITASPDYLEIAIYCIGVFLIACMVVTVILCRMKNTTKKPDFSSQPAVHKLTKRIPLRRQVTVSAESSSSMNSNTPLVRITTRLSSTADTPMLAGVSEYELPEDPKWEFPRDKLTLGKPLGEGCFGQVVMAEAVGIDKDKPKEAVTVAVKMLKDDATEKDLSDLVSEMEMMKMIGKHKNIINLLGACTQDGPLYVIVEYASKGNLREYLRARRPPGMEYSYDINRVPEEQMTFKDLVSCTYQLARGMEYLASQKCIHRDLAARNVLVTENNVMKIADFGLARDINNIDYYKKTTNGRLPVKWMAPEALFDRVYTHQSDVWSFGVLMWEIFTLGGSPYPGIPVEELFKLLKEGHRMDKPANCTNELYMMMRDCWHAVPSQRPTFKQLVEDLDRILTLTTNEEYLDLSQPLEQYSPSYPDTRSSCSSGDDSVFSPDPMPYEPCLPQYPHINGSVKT
In test [6] the target is Fibroblast growth factor receptor 1 (Homo sapiens) (UniProt P11362). As to the kind of experiment: Inhibition of FGFR1 (unknown origin) relative to control. The following applies: concentration not given here.
Chain of Fibroblast growth factor receptor 1 (Homo sapiens) (P11362 22-822 limits assumed): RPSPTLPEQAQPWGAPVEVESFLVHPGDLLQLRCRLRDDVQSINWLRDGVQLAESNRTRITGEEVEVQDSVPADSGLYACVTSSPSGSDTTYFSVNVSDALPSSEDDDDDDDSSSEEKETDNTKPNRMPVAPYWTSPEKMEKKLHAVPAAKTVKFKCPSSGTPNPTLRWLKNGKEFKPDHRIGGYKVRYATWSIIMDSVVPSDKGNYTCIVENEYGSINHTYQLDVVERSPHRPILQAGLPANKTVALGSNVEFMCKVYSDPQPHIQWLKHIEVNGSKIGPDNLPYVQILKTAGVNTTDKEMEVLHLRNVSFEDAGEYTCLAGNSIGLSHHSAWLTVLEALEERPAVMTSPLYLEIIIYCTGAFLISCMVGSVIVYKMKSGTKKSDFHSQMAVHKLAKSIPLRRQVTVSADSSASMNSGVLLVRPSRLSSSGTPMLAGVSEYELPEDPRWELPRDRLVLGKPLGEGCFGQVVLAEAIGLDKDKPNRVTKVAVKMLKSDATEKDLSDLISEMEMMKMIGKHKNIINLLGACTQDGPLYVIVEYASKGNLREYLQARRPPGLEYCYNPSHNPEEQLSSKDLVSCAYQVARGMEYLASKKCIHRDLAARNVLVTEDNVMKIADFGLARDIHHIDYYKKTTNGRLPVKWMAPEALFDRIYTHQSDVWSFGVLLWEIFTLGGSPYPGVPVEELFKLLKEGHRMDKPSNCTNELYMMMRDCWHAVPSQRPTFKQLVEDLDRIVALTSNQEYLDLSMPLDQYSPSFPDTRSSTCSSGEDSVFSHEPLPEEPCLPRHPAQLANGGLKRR
For test [7], the system named is TT. Put plainly: Cytotoxicity against human TT cells by trypan blue dye-based assay. It is filed as functional, cell-based.
Test [8] deals with Caco-2. As to the kind of experiment: Cytotoxicity against human Caco2 cells by MTT assay. It counts as functional, cell-based.
Test [9] deals with HT-1080. Put plainly: Induction of DNA damage in human HT1080 cells assessed as formation of DNA breaks at 50 ug/ml by comet assay relative to control. It is filed as functional.
Test [10] concerns Colon 26. Put plainly: Cytotoxicity against mouse Colon 26 cells after 4 hrs by MTT assay. It is filed as functional, cell-based. The following applies: Colon 26, 4 h.
The test system of test [11] is HT-29. Put plainly: Cytotoxicity against human HT-29 cells after 4 hrs by MTT assay. It counts as functional, cell-based. The following applies: HT-29, 4 h.
Test [12] deals with KM12. Put plainly: Cytotoxicity against human KM12 cells after 4 hrs by MTT assay. The following applies: KM12, 4 h. It counts as functional, cell-based.
In test [13] the test system is SW480. As to the kind of experiment: Cytotoxicity against human SW480 cells after 4 hrs by MTT assay. It is filed as functional, cell-based. The following applies: SW480, 4 h.
Test [14] in a line: Cytotoxicity against human SW116 cells after 4 hrs by MTT assay. It is filed as functional, cell-based. As to conditions: SW116, 4 h.
Test [15] relates to WiDr. As to the kind of experiment: Cytotoxicity against human WiDr cells after 4 hrs by MTT assay. It is filed as functional, cell-based.
Test [16] can be described thus: Cytotoxicity against human HPL1D cells. It counts as functional, cell-based.
In test [17] the test system is HT-1080. As to the kind of experiment: Decrease in UPA expression in human HT1080 cells. It counts as functional, cell-based.
Test [18] concerns HeLa. Put plainly: Cytotoxicity against human HeLa cells. It is filed as functional, cell-based.
For test [19], the system named is HT-29. Put plainly: Cytotoxicity against human HT-29 cells. It is filed as functional, cell-based.
Test [20] has as its system MCF7. Put plainly: Cytotoxicity against human MCF7 cells. It is filed as functional, cell-based.
Test [21] relates to EL4. As to the kind of experiment: Induction of apoptosis in mouse EL4 cells at 50 umol/L after 72 hrs relative to control. It is filed as functional.
For test [22], the system named is BT-474. As to the kind of experiment: Cytotoxicity against human BT474 cells. It is filed as functional, cell-based.
The nature of test [23]: Cytotoxicity against […] cells by MTT assay. It counts as functional, cell-based.
Test [24] relates to CCD-841CoN. Put plainly: Cytotoxicity against human CRL1790 cells. It counts as functional, cell-based.
Test [25] has as its system T47D. Put plainly: Cytotoxicity against human T47D cells. It counts as functional, cell-based.
Test [26] deals with DLD-1. As to the kind of experiment: Cytotoxicity against human DLD1 cells. It is filed as functional, cell-based.
Test [27] concerns Hep 3B2. Put plainly: Cytotoxicity against human Hep3B cells. It is filed as functional, cell-based.
The subject of test [28] is HaCaT. As to the kind of experiment: Cytotoxicity against human HaCaT cells. It counts as functional, cell-based.
Test [29] concerns the target Tubulin. Put plainly: Inhibition of tubulin polymerization (unknown origin). It counts as protein-complex assay, Homo sapiens.
Test [30] concerns K562. Put plainly: Induction of apoptosis in human K562. It is filed as functional, cell-based.
Test [31] has as its system HepG2. As to the kind of experiment: Cytotoxicity against human HepG2 cells by MTT/SRB assay. It is filed as functional, cell-based.
Test [32] concerns HT-29. As to the kind of experiment: Cytotoxicity against human HT-29 cells by MTT/SRB assay. It counts as functional, cell-based. (In general: The SRB assay estimates cell density from bound dye.)
Test [33] relates to Caco-2. As to the kind of experiment: Cytotoxicity against human Caco2 cells by MTT/SRB assay. It counts as functional, cell-based.
Test [34] has as its system CHO-K1. Put plainly: Cytotoxicity against CHOK1 cells by MTT/SRB assay. It is filed as functional, cell-based. As to conditions: Cricetulus griseus.
In test [35] the test system is HT-1080. Put plainly: Antioxidant activity in human HT1080 cells at 100 umol/L by measuring TBARS level by spectrophotometric method relative to control. It is filed as functional.
The test system of test [36] is 3LL cell line. As to the kind of experiment: Induction of apoptosis in mouse 3LL cells relative to control. It is filed as functional, cell-based.
The test system of test [37] is HL-60. As to the kind of experiment: Induction of apoptosis in human HL60 cells relative to control. It counts as functional, cell-based.
Test [38] relates to U-937. Put plainly: Induction of apoptosis in human U937 cells relative to control. It is filed as functional, cell-based.
Test [39] deals with KB. Put plainly: Cell cycle arrest in human KB cells by propidium iodide staining-based flow cytometric method. It is filed as functional. In general terms: A flow cytometer gives signals particle by particle.
For test [40], the system named is HepG2. Put plainly: Induction of apoptosis in human HepG2 cells relative to control. It counts as functional, cell-based.
Test [41] is described as follows: Induction of apoptosis in human SNUC5 cells relative to control. It counts as functional, cell-based.
The test system of test [42] is DU-145. Put plainly: Cell cycle arrest in human DU145 cells by propidium iodide staining-based flow cytometric method. It counts as functional.
Test [43] has as its system MCF7. As to the kind of experiment: Cell cycle arrest in human MCF7 cells by propidium iodide staining-based flow cytometric method. It counts as functional.
The subject of test [44] is A549. Put plainly: Cell cycle arrest in human A549 cells by propidium iodide staining-based flow cytometric method. It counts as functional.
For test [45], the system named is MCF7R. Put plainly: Cytotoxicity against human MCF7/R cells at 10 uM after 72 hrs by MTS assay relative to control. It is filed as functional.
Test [46] relates to MCF7R. Put plainly: Cytotoxicity against human MCF7/R cells after 72 hrs in presence of curcumin by MTS assay relative to control. It is filed as functional.

As to `O=C1/C(=C/c2ccccc2F)CNC/C1=C\c1ccccc1F`, the IC50 in test [1] is 4.5 µM; in test [2], 5.8 µM; in [3], 6.5 µM; in test [4], 6 µM.
With `COc1cc(/C=C/C(=O)O)ccc1O` [FERULATE], the inhibition in test [5] was 64%; in [6], 92%. In test [7], this molecule yielded a 50% inhibitory concentration (IC50) of 150 µM.
For the molecule `CCOC(=O)CCC(=O)Oc1ccc(/C=C/C(=O)/C=C(O)/C=C/c2ccc(OC(=O)CCC(=O)OCC)c(OC)c2)cc1OC`, the IC50 in test [8] amounted to 1.84 µM.
With `O=C(O)/C=C/c1ccc(O)c(O)c1` [CAFFEIC ACID], the Activity in test [9] is 85%.
Regarding `COc1cc(/C=C/C(=O)C(Cc2ccc(O)c(OC)c2)C(=O)/C=C/c2ccc(O)c(OC)c2)ccc1O`, the IC50 came to 8.91 µM in test [10] (read-out: IC50); 5.42 µM in [11]; 3.9 µM in [12]; 4.78 µM in [13]; 7.08 µM in test [14]; 7.32 µM in test [15].
With `COc1cc(/C=C/C(=O)CC(=O)/C=C/c2ccc(O)c(OC)c2)ccc1O` [CURCUMIN], the IC50 amounted to 30.3 µM in [10]; 16 µM in test [16]; 20.7 µM in test [11]; 10 µM in test [17]; 8.2 µM in test [18]; 132 µM in test [19]. In addition, the IC50 in [20] was 19.9 µM; in [12], 16 µM; in test [13], 17.9 µM; in test [22], 11 µM; in [23], 8.5 µM; in test [24], 105 µM. The IC50 is 11 µM in test [25]; 146 µM in test [26]; 27.5 µM in test [14]; 10 µM in [27]; 26.8 µM in test [15]; 13 µM in test [28]. The Activity in test [21] is recorded as 95%.
Regarding `O=C(/C=C/c1ccccc1)c1ccccc1` [CHALCONE], the IC50 was 620 µM in test [29] and 4.3 µM in test [30].
Regarding `O=C(/C=C(O)/C=C/c1c[nH]c2ccccc12)/C=C/c1c[nH]c2ccccc12`, the concentration for half-maximal inhibition (IC50) in test [31], in [32], in [33] and in [34] was 3.3 to 12.1 µM in each case.
Consider `C/C=C/c1ccc(O)c(OC)c1`, for which the Activity in test [35] is on record as 70%. The IC50 in test [36] stood at 89.6 µM; in test [37] it was 23.7 µM; in test [38], 39.4 µM; in [39], 38.6 µM; in test [40] it was 119 µM; in test [41], 129 µM. For the same molecule, the IC50 in test [42] amounted to 33.2 µM; in test [43], 40.7 µM; in test [44] it was 33.5 µM.
In [45], `COc1cc(/C=C/c2cc(/C=C/c3ccc(O)c(OC)c3)on2)ccc1O` gave an inhibition at 10 µM of 57.8%. For the same molecule, in test [46], the “inhibition (INH)” value turned out to be 57.6%.
